This passage reports GI50 and TGI results from PubChem BioAssay (NCI).

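Protocol summary: plate cells (96-well), add compound at 5 concentrations, incubate 48 h, interpolate endpoints linearly. GI50: concentration for 50% inhibition of growth. TGI: concentration producing complete growth inhibition.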

Common to all, as to test: NCI anticancer screen, dose series, 48 h
The test system of experiment [1] is RXF 393 renal.
For experiment [2], the system named is SF-295 CNS.
Experiment [3] relates to SF-268 CNS.
The subject of experiment [4] is MOLT-4 leukemia.
Experiment [5] concerns MDA-MB-435.
Experiment [6] deals with OVCAR-4 ovarian.
In experiment [7] the test system is OVCAR-5 ovarian.
Experiment [8] concerns U251 CNS.
The test system of experiment [9] is SK-MEL-5 melanoma.
The test system of experiment [10] is UO-31 renal.

In the case of `CS(=O)(=O)CCNCc1ccc(-c2ccc3ncnc(Nc4ccc(OCc5ccccc5)c(Br)c4)c3c2)o1`, the GI50 is 3.71 µM in [1]; 5.26 µM in [2]; 10.7 µM in experiment [3]; 9.2 µM in [4]; 6.09 µM in experiment [5]; 15.5 µM in experiment [6]. Moreover, the GI50 in experiment [7] was 7.05 µM; in [8], 7.12 µM; in [9] it was 3.44 µM; in [10], 3.64 µM. Besides, the TGI was 8.19 µM in experiment [1]; 12.8 µM in experiment [2]; above 25 µM in experiment [3]; above 25 µM in experiment [4]; 15.8 µM in [5]; above 25 µM in [6]. The TGI is above 25 µM in [7], above 23 µM in [8], 6.71 µM in experiment [9] and 11.5 µM in experiment [10].

With `Cc1ccc2c(-c3ccnc(Nc4ccccc4)n3)c(-c3ccc(F)cc3)nn2n1`, the GI50 in [1] was 3.77 µM; in experiment [2] it was 11.3 µM; in experiment [3] it was 11.1 µM; in experiment [4], 13.4 µM; in experiment [5], 6.83 µM; in experiment [6], 11.1 µM. Moreover, the GI50 is 8.25 µM in [7], 9.8 µM in experiment [8], 4.75 µM in experiment [9] and 1.01 µM in experiment [10]. Besides, the TGI is above 18.7 µM in [1]; above 25 µM in experiment [2]; above 25 µM in experiment [3]; above 25 µM in experiment [4]; above 25 µM in experiment [5]; above 25 µM in experiment [6]. The TGI in experiment [7] was above 25 µM; in experiment [8] it was above 25 µM; in experiment [9] it was 11.4 µM; in experiment [10], above 24.1 µM.

`C=C(C)[C@@H]1CC[C@]2(C(=O)O)CC[C@]3(C)[C@H](CC[C@@H]4[C@@]5(C)CCC(NC(=O)c6cccc(OC(C)=O)c6OC(C)=O)C(C)(C)[C@@H]5CC[C@]43C)[C@@H]12` (some centres undefined): the GI50 is 1 µM in experiment [1]; 0.562 µM in experiment [2]; 0.78 µM in experiment [3]; 0.497 µM in experiment [4]; 0.382 µM in [5]; 0.507 µM in experiment [6]. Further, the GI50 is 1.92 µM in experiment [7], 0.52 µM in [8], 0.48 µM in experiment [9] and 0.283 µM in experiment [10]. For the same molecule, the TGI is 3.12 µM in [1]; 3.89 µM in [2]; 11.9 µM in [3]; 2.85 µM in experiment [4]; 1.61 µM in experiment [5]; above 100 µM in [6]. Besides, the TGI was above 27.3 µM in [7], 14.5 µM in experiment [8], 1.67 µM in experiment [9] and 1.43 µM in experiment [10].

On to `C=C(NC(=O)C(=C)NC(=O)c1csc(C2=NC3c4csc(n4)C4NC(=O)c5csc(n5)C(C(C)(O)C(C)O)NC(=O)C5CSC(=N5)C(=CC)NC(=O)C(C(C)O)NC(=O)c5csc(n5)C3(CC2)NC(=O)C(C)NC(=O)C(=C)NC(=O)C(C)NC(=O)C(C(C)CC)NC2C=Cc3c(C(C)O)cc(nc3C2O)C(=O)OC4C)n1)C(N)=O` (centres undefined), for which the GI50 is 2.44 µM in experiment [1]; 21.2 µM in experiment [2]; 19.6 µM in experiment [3]; 2.08 µM in [4]; 3.96 µM in experiment [5]; 9.45 µM in experiment [6]. Also, the GI50 in experiment [7] was 25.5 µM; in experiment [8], 9.37 µM; in experiment [9], 4.69 µM; in [10], 11.4 µM. The TGI in experiment [1] was 7.88 µM; in experiment [2], 66.9 µM; in [3] it was above 100 µM; in [4], 5.55 µM; in experiment [5], above 100 µM; in experiment [6], above 100 µM. Besides, the TGI is 79.9 µM in [7], 31.8 µM in experiment [8], 19.8 µM in experiment [9] and above 100 µM in [10].

With `COc1cc2ncn(-c3cc(O[C@@H](C)c4ccccc4Cl)c(C(N)=O)s3)c2cc1OC`, the GI50 in [1] is 0.346 µM; in [2] it was 1.25 µM; in [3], 1.61 µM; in experiment [4] it was 0.926 µM; in experiment [5] it was 0.146 µM; in [6] it was 3.53 µM. Moreover, the GI50 in [7] was 1.29 µM; in experiment [8], 1.84 µM; in experiment [9], 0.247 µM; in experiment [10], 5.3 µM. The TGI in experiment [1] is above 22.9 µM; in experiment [2], above 25 µM; in [3], above 25 µM; in [4], above 18.4 µM; in experiment [5], above 25 µM; in experiment [6] it was above 25 µM. In addition, the TGI is above 25 µM in experiment [7], above 25 µM in experiment [8], 5.26 µM in experiment [9] and above 25 µM in [10].

In the case of `COC(=O)CC[C@]1(C)O[C@H]2[C@H]([C@@H](C)CCCC(C)=O)OC(=O)[C@@H]2C[C@H]1O`, the GI50 in experiment [1] was 60.1 µM; in [2], above 100 µM; in [3], above 100 µM; in [4], above 100 µM; in [5], 98.3 µM; in experiment [6], above 100 µM. Further, the GI50 in experiment [7], in experiment [8], in experiment [9] and in [10] was above 100 µM throughout. Further, the TGI in [1], in experiment [2], in experiment [3], in [4], in experiment [5] and in experiment [6] was above 100 µM each time. Moreover, the TGI in [7], in [8], in experiment [9] and in experiment [10] was above 100 µM each time.

`COc1cc2c(cc1OC)-c1ccc3cc4c(cc3c1N(CCCn1ccnc1)C2)OCO4`: the GI50 in experiment [1] is 3.43 µM; in experiment [2] it was 2.8 µM; in experiment [3] it was 0.514 µM; in experiment [4], 0.467 µM; in [5], 4.35 µM; in experiment [6] it was 4.81 µM. In addition, the GI50 in [7] is 16.4 µM; in experiment [8], 1.02 µM; in experiment [9], 2.22 µM; in experiment [10], 16.7 µM. Besides, the TGI in [1] was 16.3 µM; in experiment [2], 75.6 µM; in experiment [3] it was 53.4 µM; in experiment [4] it was above 100 µM; in experiment [5], 16.8 µM; in [6], 31.9 µM. In addition, the TGI in experiment [7] stood at 69.9 µM; in [8], 3.97 µM; in experiment [9] it was 10.2 µM; in experiment [10], 60.5 µM.

On to `CNC(=O)c1ccc(N2C(=S)N(c3ccc(C#N)c(C(F)(F)F)c3)C(=O)C2(C)C)cc1F`, for which the GI50 was 35.8 µM in [1]; 28.9 µM in experiment [2]; above 52.3 µM in experiment [3]; 33.1 µM in experiment [4]; 41.9 µM in experiment [5]; 31.8 µM in [6]. The GI50 in experiment [7] was above 47.5 µM; in experiment [8], 43 µM; in experiment [9], 20.3 µM; in [10] it was 8.83 µM. Also, the TGI was above 66 µM in experiment [1]; above 75.9 µM in experiment [2]; above 100 µM in experiment [3]; above 100 µM in experiment [4]; above 79.3 µM in [5]; above 100 µM in experiment [6]. Also, the TGI is above 92.4 µM in experiment [7], above 79.7 µM in experiment [8], 50 µM in [9] and 34.9 µM in experiment [10].

For `Cc1nc2sc(C(=O)Nc3cccc4ccccc34)c(N)c2cc1C(O)c1ccccc1` (centres undefined), the GI50 in [1] was 0.0307 µM; in experiment [2], 0.0513 µM; in experiment [3], 0.174 µM; in experiment [4] it was 0.0796 µM; in experiment [5] it was 0.0205 µM; in experiment [6] it was 0.215 µM. Also, the GI50 was 0.28 µM in experiment [7], 0.0499 µM in [8], 0.0993 µM in [9] and 0.283 µM in experiment [10]. In addition, the TGI in experiment [1] was 24.7 µM; in experiment [2] it was 4.42 µM; in experiment [3], 11.2 µM; in experiment [4], above 65.7 µM; in experiment [5], 0.0469 µM; in [6], 44.2 µM. The TGI was above 100 µM in [7], 13.5 µM in [8], 0.717 µM in experiment [9] and 14.2 µM in experiment [10].

For `Cc1cc(=O)oc2c(C)c(O)ccc12`, the TGI in [1], in experiment [2], in experiment [3], in [4], in [5] and in experiment [6] was above 100 µM in each case. Also, the TGI in [7], in experiment [8], in experiment [9] and in experiment [10] was above 100 µM in each case.

On to `O=c1ccs[nH]1`, for which the TGI in experiment [1] amounted to 21 µM; in experiment [2], 54.2 µM; in experiment [3] it was 35.4 µM; in experiment [4], 25 µM; in experiment [5] it was 31 µM; in experiment [6], 32.5 µM. For the same molecule, the TGI in experiment [7] was found to be 36.3 µM; in [8], 21.4 µM; in [9], 46.5 µM; in experiment [10], 23 µM.

As to `COC(=O)c1cc2c3ccccc3n3c(=O)c4cc5ccccc5nc4c(n1)c23`, the GI50 in experiment [1], in experiment [2], in [3], in experiment [4], in [5] and in [6] was above 100 µM each time. The GI50 in experiment [7], in [8], in [9] and in experiment [10] was above 100 µM each time. The TGI in experiment [1], in [2], in experiment [3], in [4], in [5] and in experiment [6] was above 100 µM each time. Further, the TGI in [7], in experiment [8], in experiment [9] and in [10] was above 100 µM each time.

Take `CC(C)C[C@H](NC(=O)Cn1ccc(NCc2ccccc2)cc1=O)B(O)O`: the GI50 is 0.346 µM in experiment [1]; 2.62 µM in experiment [2]; 3.57 µM in experiment [3]; 0.319 µM in experiment [4]; 0.335 µM in [5]; 4.59 µM in [6]. In addition, the GI50 in [7] is 5.29 µM; in experiment [8], 6.3 µM; in experiment [9], 0.678 µM; in experiment [10], 1.21 µM. The TGI is 1.31 µM in [1]; 15.3 µM in experiment [2]; 27.5 µM in [3]; 1.29 µM in experiment [5]; above 100 µM in experiment [6]; above 100 µM in experiment [7]. Moreover, the TGI is above 100 µM in experiment [8], 2.89 µM in experiment [9] and 10.6 µM in experiment [10].
